Measurements as given in patent US20260152487A1 (Sitryx Therapeutics Limited, priority 2021, published 2026).
pEC50: −log10 of the molar value. Read-outs that look alike come from different tables or passages of the source.

Columns and labels:
[1] = target: T1, recombinant human PKM2 (Homo sapiens, UniProt P14618); assay: Human PKM2 activation assay (Kinase-Glo Plus luminescent detection of generated ATP); type: biochemical; details: for pEC50: read-out: hPKM2 EC50; for Emax: read-out: hPKM2 Emax
T1 construct: His (N); purchased R&D Systems
T1 sequence (P14618 2-531 limits assumed): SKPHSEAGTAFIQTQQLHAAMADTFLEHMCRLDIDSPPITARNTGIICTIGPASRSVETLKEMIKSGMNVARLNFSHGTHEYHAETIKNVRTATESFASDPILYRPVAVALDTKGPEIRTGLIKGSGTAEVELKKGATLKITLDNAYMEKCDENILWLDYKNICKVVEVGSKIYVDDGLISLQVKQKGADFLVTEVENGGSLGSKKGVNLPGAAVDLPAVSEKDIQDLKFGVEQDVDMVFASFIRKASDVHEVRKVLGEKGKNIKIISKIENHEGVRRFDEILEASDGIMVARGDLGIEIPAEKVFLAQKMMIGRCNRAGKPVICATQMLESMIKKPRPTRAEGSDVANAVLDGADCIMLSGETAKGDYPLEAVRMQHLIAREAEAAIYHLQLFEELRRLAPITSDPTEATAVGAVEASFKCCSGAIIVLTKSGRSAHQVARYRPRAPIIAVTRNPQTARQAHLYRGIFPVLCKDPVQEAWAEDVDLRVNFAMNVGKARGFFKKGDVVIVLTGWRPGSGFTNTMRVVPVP
In short: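 N-His-tagged recombinant hPKM2 ([…]) with PEP and ADP was incubated with compound for 60 min at 26 °C, shaking, in 50 mM imidazole, 50 mM KCl, 7 mM MgCl2, 0.01% Tween20, 0.05% BSA, pH 7.2. ATP produced was read by Kinase-Glo Plus luminescence after 15 min.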

[2] = target: T2, recombinant human PKLR (Homo sapiens, UniProt P30613); assay: Human PKLR activation assay (Kinase-Glo Plus luminescent detection of generated ATP); type: biochemical; details: for pEC50: activation of recombinant human PKLR, 4-parameter logistic fit, read-out: hPKLR EC50; for Emax: read-out: hPKLR Emax (%)
T2 construct: His (N); purchased R&D Systems
T2 sequence (P30613 whole entry): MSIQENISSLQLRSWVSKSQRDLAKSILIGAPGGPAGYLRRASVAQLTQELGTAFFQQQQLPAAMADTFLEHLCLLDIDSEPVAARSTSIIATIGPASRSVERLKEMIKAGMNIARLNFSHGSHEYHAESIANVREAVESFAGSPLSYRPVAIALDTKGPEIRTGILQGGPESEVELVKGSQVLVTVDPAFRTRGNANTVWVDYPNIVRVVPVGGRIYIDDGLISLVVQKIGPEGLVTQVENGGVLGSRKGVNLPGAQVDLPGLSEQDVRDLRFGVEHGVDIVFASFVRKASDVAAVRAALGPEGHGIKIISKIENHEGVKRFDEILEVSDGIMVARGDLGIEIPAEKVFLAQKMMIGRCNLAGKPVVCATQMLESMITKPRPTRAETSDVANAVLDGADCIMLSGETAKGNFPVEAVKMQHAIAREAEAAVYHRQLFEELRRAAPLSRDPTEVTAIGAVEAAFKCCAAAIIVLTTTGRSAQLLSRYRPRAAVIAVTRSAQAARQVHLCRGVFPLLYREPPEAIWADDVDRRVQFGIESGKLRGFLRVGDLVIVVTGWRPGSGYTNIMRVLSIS
Protocol: Compound activation of recombinant human PKLR pyruvate kinase activity was determined by biochemical assay. N-terminal His-tagged enzyme was sourced from R&D Systems and its substrates phosphoenolpyruvate (PEP) and ADP from Sigma-Aldrich and 2Bscientific Ltd, respectively. The Kinase-Glo® Plus luminescence assay was from Promega. All other reagents were from Sigma-Aldrich. Test Compounds were prepared as 10 mM DMSO stocks and dilution series prepared in DMSO for direct dilution into Assay Buffer comprising 50 mM imidazole, 50 mM KCl, 7 mM MgCl2, 0.01% Tween20, 0.05% BSA (pH 7.2).
Human PKLR was diluted into Assay Buffer to a final concentration of 5 pM. Enzyme-Assay Buffer mix was dispensed into 384-well shallow-well white-walled plates and Test Compounds added by acoustic dispense (Echo®, Labcyte Inc).
After 60 minutes' incubation on an orbital shaker (300 rpm, 26° C.), enzyme activity was quantified by the luminescent detection of generated ATP. Kinase-Glo® Plus reagent was added to each well and the plates incubated for a further 15 minutes on an orbital shaker in the dark (300 rpm, 26° C.) before luminescence measurement on a plate reader (PHERAstar® FSX, BMG Labtech).
Percentage activation was calculated by normalising […] signals to plate LOW (DMSO vehicle) and HIGH (5 μM TEPP-46) controls. EC50 and Emax values were determined from 4-parameter logistic fits of compound concentration-response curves.

[3] = percentage activation normalised to DMSO vehicle (LOW) and 5 μM TEPP-46 (HIGH)
[4] = recombinant human PKM2 activation, 4-parameter logistic fit
[5] = percentage activation normalised to DMSO vehicle (LOW) and 5 μM TEPP-46 (HIGH) controls

Row | Compound | hPKM2 Emax [1, 3] [%] | pEC50 [1, 4] | pEC50 [2] | hPKLR Emax (%) [2, 5] [%] | Emax [2, 5] [%] | Emax [1, 3] [%] | pEC50 ([1]; data from repeat experiments (*)) | Emax ([1]; line of the repeat experiment (EC50 marked *)) [%]
1 | COc1ccc([S@@](=N)(=O)c2ccc3c(=O)n(Cc4ccc(OC)nc4)ncc3c2)cc1 (single isomer, unassigned) [Example 191] | 91.2 | 7.07 | 7.85 | 133 | – | – | – | –
2 | COc1ccc([S@](=N)(=O)c2ccc3c(=O)n(Cc4ccc(OC)nc4)ncc3c2)cc1 (single isomer, unassigned) [Example 192] | 59.1 | 6.97 | 6.62 | – | 129 | – | – | –
3 | COc1ccc(S(=O)(=O)c2ccc3c(=O)n(Cc4cccn(CCO)c4=O)ncc3c2)cc1 [Example 5, 2-((1-(2-hydroxyethyl)-2-oxo-1,2-dihydropyridin-3-yl)methyl)-6-(4-methoxyphenylsulfonyl)phthalazin-1(2H)-one] | – | 7.22 | 7.71 | – | 111 | 102 | – | –
4 | O=c1c2ccc(S(=O)(=O)c3ccccc3)cc2cnn1Cc1n[nH]cc1F [Example 110, 2-((4-fluoro-1H-pyrazol-3-yl)methyl)-6-(phenylsulfonyl)phthalazin-1(2H)-one] | – | 7.16 | 7.53 | – | 118 | 119 | – | –
5 | COc1ccc(S(=O)(=O)c2ccc3c(=O)n(Cc4ncccc4O)ncc3c2)cc1 [Example 113, 2-((3-hydroxypyridin-2-yl)methyl)-6-(4-methoxyphenylsulfonyl)phthalazin-1(2H)-one] | – | 6.79 | 8.02 | – | 118 | 133 | – | –
6 | Nc1cccc(Cn2ncc3cc(S(=O)(=O)c4ccccc4)ccc3c2=O)c1 [Example 141, 2-(3-aminobenzyl)-6-(phenylsulfonyl)phthalazin-1(2H)-one] | – | 7.11 | 8.10 | – | 108 | 113 | – | –
7 | O=c1c2ccc(S(=O)(=O)c3cnn(C4CC4)c3)cc2cnn1Cc1cccnc1O [Example 193, 6-(1-cyclopropyl-1H-pyrazol-4-ylsulfonyl)-2-((2-hydroxypyridin-3-yl)methyl)phthalazin-1(2H)-one] | – | 6.79 | 7.06 | – | 111 | 84.9 | – | –
8 | Cn1ccc(Cn2ncc3cc(S(=O)(=O)c4cnn(C5CC5)c4)ccc3c2=O)n1 [Example 194, 6-(1-cyclopropyl-1H-pyrazol-4-ylsulfonyl)-2-((1-methyl-1H-pyrazol-3-yl)methyl)phthalazin-1(2H)-one] | – | 7.11 | 6.98 | – | 112 | 113 | – | –
9 | O=c1c2ccc(S(=O)(=O)c3cnn(C4CC4)c3)cc2cnn1Cc1ccn(C2CC2)n1 [Example 196, 2-((1-cyclopropyl-1H-pyrazol-3-yl)methyl)-6-((1-cyclopropyl-1H-pyrazol-4-yl)sulfonyl)phthalazin-1(2H)-one] | – | 7.32 | 7.77 | – | 120 | 98.9 | – | –
10 | O=c1c2ccc(S(=O)(=O)c3ccc4c(c3)NCCO4)cc2cnn1Cc1ccn(CCO)n1 [Example 202, 6-((3,4-dihydro-2H-benzo[b][1,4]oxazin-6-yl)sulfonyl)-2-((1-(2-hydroxyethyl)-1H-pyrazol-3-yl)methyl)phthalazin-1(2H)-one] | – | 7.04 | 8.10 | – | 125 | 109 | – | –
11 | COc1ccc(S(=O)(=O)c2ccc3c(=O)n(Cc4ccn(C5CC5)n4)ncc3c2)cn1 [Example 205, 2-((1-cyclopropyl-1H-pyrazol-3-yl)methyl)-6-((6-methoxypyridin-3-yl)sulfonyl)phthalazin-1(2H)-one] | – | 7.23 | 8.10 | – | 115 | 120 | – | –
12 | O=c1c2ccc(S(=O)(=O)c3ccc4c(c3)OCCO4)cc2cnn1Cc1ccn(CCO)n1 [Example 206, 6-((2,3-dihydrobenzo[b][1,4]dioxin-6-yl)sulfonyl)-2-((1-(2-hydroxyethyl)-1H-pyrazol-3-yl)methyl)phthalazin-1(2H)-one] | – | 7.30 | 7.99 | – | 128 | 98.7 | – | –
13 | O=c1c2ccc(S(=O)(=O)c3ccc4occc4n3)cc2cnn1Cc1cc[nH]n1 [Example 223, 2-((1H-pyrazol-3-yl)methyl)-6-(furo[3,2-b]pyridin-5-ylsulfonyl)phthalazin-1(2H)-one] | – | 7.35 | 8.31 | – | 132 | 107 | – | –
14 | O=c1c2ccc(S(=O)(=O)c3cnc4occc4c3)cc2cnn1Cc1cc[nH]n1 [Example 225, 2-((1H-pyrazol-3-yl)methyl)-6-(furo[2,3-b]pyridin-5-ylsulfonyl)phthalazin-1(2H)-one] | – | 7.30 | 8.07 | – | 117 | 114 | – | –
15 | Cc1cccc(Cn2ncc3cc(S(=O)(=O)c4cn[nH]c4)ccc3c2=O)n1 [Example 238, 6-((1H-pyrazol-4-yl)sulfonyl)-2-((6-methylpyridin-2-yl)methyl)phthalazin-1(2H)-one] | – | 6.90 | 7.84 | – | 127 | 108 | – | –
16 | Cc1cccc(Cn2ncc3cc(S(=O)(=O)c4cc[nH]n4)ccc3c2=O)n1 [Example 239, 6-((1H-pyrazol-3-yl)sulfonyl)-2-((6-methylpyridin-2-yl)methyl)phthalazin-1(2H)-one] | – | 6.96 | 7.61 | – | 135 | 106 | – | –

Now from value to compound:

Row | hPKM2 Emax [1, 3] [%] | pEC50 [1, 4] | pEC50 [2] | hPKLR Emax (%) [2, 5] [%] | Emax [2, 5] [%] | Emax [1, 3] [%] | pEC50 ([1]; data from repeat experiments (*)) | Emax ([1]; line of the repeat experiment (EC50 marked *)) [%] | Compound
17 | – | 7.59 | 8.39 | – | 108 | 112 | – | – | COc1ccc(S(=O)(=O)c2ccc3c(=O)n(Cc4cccc(N)c4)ncc3c2)cc1 [Example 142, 2-(3-aminobenzyl)-6-((4-methoxyphenyl)sulfonyl)phthalazin-1(2H)-one]
18 | – | 7.35 | 8.19 | – | 85.4 | 90.4 | – | – | COc1ccc(Cn2ncc3cc(S(=O)(=O)c4ccc(C)cc4)ccc3c2=O)cn1 [Example 150, 2-((6-methoxypyridin-3-yl)methyl)-6-tosylphthalazin-1(2H)-one]
19 | – | 7.74 | 8.70 | – | 121 | 112 | – | – | O=c1c2ccc(S(=O)(=O)c3ccc4occc4c3)cc2cnn1Cc1cc[nH]n1 [Example 195, 2-((1H-pyrazol-3-yl)methyl)-6-(benzofuran-5-ylsulfonyl)phthalazin-1(2H)-one]
20 | – | 7.55 | 8.54 | – | 140 | 103 | – | – | Cn1ccc(Cn2ncc3cc(S(=O)(=O)c4ccc5c(c4)NCCO5)ccc3c2=O)n1 [Example 201, 6-((3,4-dihydro-2H-benzo[b][1,4]oxazin-6-yl)sulfonyl)-2-((1-methyl-1H-pyrazol-3-yl)methyl)phthalazin-1(2H)-one]
21 | – | 7.45 | 8.62 | – | 123 | 114 | – | – | O=c1c2ccc(S(=O)(=O)c3ccc4c(c3)CCO4)cc2cnn1Cc1cc[nH]n1 [Example 203, 2-((1H-pyrazol-3-yl)methyl)-6-((2,3-dihydrobenzofuran-5-yl)sulfonyl)phthalazin-1(2H)-one]
22 | – | 7.48 | 8.38 | – | 123 | 99.9 | – | – | O=c1c2ccc(S(=O)(=O)c3ccc4c(c3)OCCO4)cc2cnn1Cc1cc[nH]n1 [Example 207, 2-((1H-pyrazol-3-yl)methyl)-6-((2,3-dihydrobenzo[b][1,4]dioxin-6-yl)sulfonyl)phthalazine-1(2H)-one]
23 | – | 7.35 | 7.99 | – | 124 | 106 | – | – | C[C@H]1Cc2cc(S(=O)(=O)c3ccc4c(=O)n(Cc5ccn(C)n5)ncc4c3)ccc2O1 [Example 219, (S)-2-((1-methyl-1H-pyrazol-3-yl)methyl)-6-((2-methyl-2,3-dihydrobenzofuran-5-yl)sulfonyl)phthalazin-1(2H)-one]
24 | – | 7.37 | 8.47 | – | 134 | 105 | – | – | O=c1c2ccc(S(=O)(=O)c3ccc4c(c3)NCCO4)cc2cnn1Cc1cc[nH]n1 [Example 221, 2-((1H-pyrazol-3-yl)methyl)-6-((3,4-dihydro-2H-benzo[b][1,4]oxazin-6-yl)sulfonyl)phthalazin-1(2H)-one]
25 | – | 7.39 | 7.67 | – | 119 | 116 | 7.38 | 112 | O=c1c2ccc(S(=O)(=O)c3cnn(C4CC4)c3)cc2cnn1Cc1cc[nH]n1 [Example 228, 2-((1H-pyrazol-3-yl)methyl)-6-((1-cyclopropyl-1H-pyrazol-4-yl)sulfonyl)phthalazin-1(2H)-one]
